Measured values taken from ChEMBL document CHEMBL1148501, “Synthesis of pyrazoles and isoxazoles as potent alpha(v)beta3 receptor antagonists” (Bioorg Med Chem Lett, 2006).

Legend:
[1] = in vivo; conditions: rat, po
[2] = in vivo; conditions: rat

bioavailability [1]: 95%
half-life [2]: 4.9 h
Structure (SMILES): Cn1nc(CC(CC(=O)O)c2ccc3c(c2)OCO3)cc1OCCc1ccc2c(n1)NCCC2 (configuration not stated)
